Test results taken from publication PMC3755041 (Chemistry & biology, 2013).
Values belong to the molecule of their own block, whether it stands above or below them.

Experiments:
[1] = molecular target: T1, human peroxiredoxin-II (hPrxII) (Homo sapiens, UniProt P32119); assay: H2O2 consumption assay; format: biochemical
T1 sequence (P32119 2-198): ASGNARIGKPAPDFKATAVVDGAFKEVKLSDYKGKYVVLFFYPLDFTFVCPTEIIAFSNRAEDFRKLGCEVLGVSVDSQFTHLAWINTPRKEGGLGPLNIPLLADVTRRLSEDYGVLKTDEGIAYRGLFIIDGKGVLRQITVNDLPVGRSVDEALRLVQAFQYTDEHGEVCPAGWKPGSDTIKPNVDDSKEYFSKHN

[2] = molecular target: AcePrx-1 (peroxiredoxin-1) (Ancylostoma ceylanicum, UniProt J7HJM3); assay: co-crystal structure; format: biochemical
[3] = molecular target: T2, human peroxiredoxin-IV (hPrxIV) (Homo sapiens, UniProt Q13162); assay: H2O2 consumption assay; format: biochemical
T2 sequence (Q13162 38-271): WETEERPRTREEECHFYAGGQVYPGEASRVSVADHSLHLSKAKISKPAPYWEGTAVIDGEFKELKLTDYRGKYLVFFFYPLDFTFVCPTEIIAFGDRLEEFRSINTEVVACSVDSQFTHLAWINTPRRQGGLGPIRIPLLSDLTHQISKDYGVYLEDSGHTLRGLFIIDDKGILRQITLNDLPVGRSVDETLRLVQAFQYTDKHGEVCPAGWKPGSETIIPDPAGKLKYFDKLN

[4] = molecular target: T3, AcePrx-1 (peroxiredoxin-1) (Ancylostoma ceylanicum, UniProt J7HJM3); assay: LC-ESI-MS of covalent adduct on purified protein; format: binding
T3 sequence (J7HJM3 1-196): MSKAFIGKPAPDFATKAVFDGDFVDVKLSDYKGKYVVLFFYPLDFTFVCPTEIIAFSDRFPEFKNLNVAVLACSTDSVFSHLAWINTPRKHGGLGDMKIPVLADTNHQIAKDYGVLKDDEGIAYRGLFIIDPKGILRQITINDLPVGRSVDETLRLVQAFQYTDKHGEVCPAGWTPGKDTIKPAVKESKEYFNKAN

[5] = molecular target: AcePrx-1 containing a C-terminal histidine tag (Ancylostoma ceylanicum); assay: SEC-MALS
[6] = molecular target: Peroxiredoxin-1 from Ancylostoma ceylanicum, wild type, N-terminal histidine tag (Ancylostoma ceylanicum); assay: non-reducing SDS-PAGE
[7] = molecular target: Peroxiredoxin-1 from Ancylostoma ceylanicum, wild type, N-terminal histidine tag (Ancylostoma ceylanicum); assay: SEC-MALS

Molecule: [O-][n+]1c(CBr)c(CBr)[n+]([O-])c2ccccc21 [conoidin A, 2,3-bis(bromomethyl)quinoxaline-1,4-dioxide]
IC50 [1]: 358 µM | IC50 [2]: 374 µM | IC50 [3]: 262 µM

Molecule: Cc1c(CBr)[n+]([O-])c2ccccc2[n+]1[O-] [conoidin B, 2-(bromomethyl)-3-methylquinoxaline-1,4-dioxide]
LC-ESI-MS of covalent adduct on purified protein [4]: Conoidin B reacted to wild type AcePrx-1 to produce a 189-Da adduct in LC-ESI-MS

stoichiometry N [5]: 10
Molecule: AcePrx-1 containing a C-terminal histidine tag (enzyme)

stoichiometry N [6]: 2 | stoichiometry N [7]: 10
Molecule: Peroxiredoxin-1 from Ancylostoma ceylanicum, wild type, N-terminal histidine tag (enzyme)
